Laboratory results: patent publication US10172927B2, “Detection/measurement of malaria infection disease utilizing natural immunity by hemozoin induction, screening of preventative or therapeutic medicine for malaria infection disease, and regulation of natural immunity induction” (Osaka University, priority 2004, dated 2019)

Tested on: FL-DCs stimulated with HZ
Test: Chloroquine effect on HZ-induced cytokine production by FL-DCs
Assay type: cell-based, mouse
Details: 30 μM HZ, CQ 10 μM, 24 hours; P<0.05 HZ vs. HZ+CQ
Experimental: Single cell suspensions of spleen cells (5×10^5 cells/well) were cultured in complete RPMI 1640 medium supplemented with 10% FCS for 48 hours. F1t3 ligand-induced bone marrow-derived DCs (FL-DCs) (1×10^5 cells/well) were generated by culturing bone marrow cells with F1t3 ligand (100 ng/ml; Pepro Tech) for eight to nine days in DMEM medium containing 10% FCS. The cells were stimulated in the presence of the indicated stimuli and supernatants were collected for cytokine ELISA.
Murine TNF-α, IL-12p40, MCP-1, IL-6 (R & D Systems), and IFNα (PBL Bio. Lab) were measured either from the supernatants or the sera by ELISA according to the manufacturer's instructions.
The anti-malarial formulation, chloroquine (CQ), has been reported to inhibit proinflammatory responses during malaria infection in addition to endosome/lysosome maturations and malarial hemozoin crystal formations, whereas the exact mechanism of anti-malarial effects of CQ is still under debate (Int. J. Parasitol. 32: 1645-1653, 2002; Life Sci. 74: 1957-1972, 2004). […] To examine the effect of CQ to HZ-induced proinflammatory responses, FL-DCs were stimulated with HZ in the presence of CQ. […]
(a) To detect DNA contamination, HZ was run on an agarose gel and stained with ethidium bromide. […] Then the supernatants were collected and measured for TNFα or IL-12p40 by ELISA. […] “n.d.” means “not detected”.

With `CCN(CC)CCCC(C)Nc1ccnc2cc(Cl)ccc12` (stereo not shown) [CQ, chloroquine] as the compound, how does the “HZ-induced TNFα and IL-12p40 productions by FL-DCs in the presence of CQ” value read?
Its value is “diminished”.
